# Test results published in ChEMBL document CHEMBL1821574, “Structure-activity relationships of 4-position diamine quinoline methanols as intermittent preventative treatment (IPT) against Plasmodium falciparum” (J Med Chem, 2011).
# Columns and labels:
# [1] = test system: Plasmodium falciparum; assay: Antimalarial activity against chloroquine-resistant and mefloquine-sensitive Plasmodium falciparum W2; format: functional
# [2] = test system: Plasmodium falciparum; assay: Antimalarial activity against mefloquine-resistant and chloroquine-sensitive Plasmodium falciparum D6; format: functional
# [3] = test system: Plasmodium falciparum; assay: Antimalarial activity against chloroquine, mefloquine and pyrimethamine-resistant Plasmodium falciparum TM91C235; format: functional
# [4] = test system: Plasmodium falciparum; assay: Antimalarial activity against chloroquine, mefloquine and pyrimethamine-resistant Plasmodium falciparum TM90C2A; format: functional
# [5] = test system: Plasmodium falciparum; assay: Antimalarial activity against chloroquine-sensitive and mefloquine-resistant Plasmodium falciparum D6 by SYBR Green I-based fluorescence assay; format: functional
# [6] = test system: Plasmodium falciparum; assay: Antimalarial activity against chloroquine, mefloquine and pyrimethamine-resistant Plasmodium falciparum TM91C235 by SYBR Green I-based fluorescence assay; format: functional
# [7] = Apparent permeability from apical to basolateral side of dog MDCK cells at 5 uM after 2 hrs by LC/MS/MS analysis; format: ADME, cell-based, Canis lupus familiaris
# [8] = test system: Plasmodium falciparum; assay: Antimalarial activity against chloroquine-resistant and mefloquine-sensitive Plasmodium falciparum W2 assessed as inhibition of [3H]hypoxanthine incorporation by liquid scintillation spectrometry; format: functional
# [9] = test system: Plasmodium falciparum; assay: Antimalarial activity against chloroquine-sensitive and mefloquine-resistant Plasmodium falciparum D6 assessed as inhibition of [3H]hypoxanthine incorporation by liquid scintillation spectrometry; format: functional
# [10] = test system: Plasmodium falciparum; assay: Antimalarial activity against chloroquine, mefloquine and pyrimethamine-resistant Plasmodium falciparum TM91C235 assessed as inhibition of [3H]hypoxanthine incorporation by liquid scintillation spectrometry; format: functional
# [11] = test system: Plasmodium falciparum; assay: Antimalarial activity against chloroquine, mefloquine and pyrimethamine-resistant Plasmodium falciparum TM90C2A assessed as inhibition of [3H]hypoxanthine incorporation by liquid scintillation spectrometry; format: functional
SMILES,IC90 [5],IC90 [6],"Papp A→B at 2 h, 5 µM [7]",IC90 [8],IC90 [9],IC90 [10],IC90 [11],also measured
CCN(CC)CCCC(C)Nc1ccnc2cc(Cl)ccc12 (stereo not drawn) [CHLOROQUINE],,,,,,,,IC90 [1]: 0.266 µg/mL; IC90 [2]: 0.0051 µg/mL; IC90 [3]: 0.089 µg/mL; IC90 [4]: 0.139 µg/mL
CN(C)CCN(CC(O)c1cc(C(F)(F)F)nc2c(C(F)(F)F)cccc12)CC(O)c1cc(C(F)(F)F)nc2c(C(F)(F)F)cccc12 (stereo not drawn),> 0.5 µg/mL,> 0.5 µg/mL,,,,,,
OC(CNCCNC1CCC1)c1cc(C(F)(F)F)nc2c(C(F)(F)F)cccc12 (stereo not drawn),0.081 µg/mL,0.138 µg/mL,8.54 ×10⁻⁶ cm/s,,,,,
OC(CNCC1CCNC1)c1cc(C(F)(F)F)nc2c(C(F)(F)F)cccc12 (stereo not drawn),,,,2.04 µg/mL,3.1 µg/mL,4.27 µg/mL,4.37 µg/mL,
CC(C)NCCNCC(O)c1cc(C(F)(F)F)nc2c(C(F)(F)F)cccc12 (stereo not drawn),0.012 µg/mL,0.032 µg/mL,12.7 ×10⁻⁶ cm/s,,,,,
OC(CNCCNC1CCCCC1)c1cc(C(F)(F)F)nc2c(C(F)(F)F)cccc12 (stereo not drawn),0.122 µg/mL,0.142 µg/mL,2.7 ×10⁻⁶ cm/s,,,,,
CC(CNC1CCCC1)NCC(O)c1cc(C(F)(F)F)nc2c(C(F)(F)F)cccc12 (stereo not drawn),0.03 µg/mL,0.124 µg/mL,11.1 ×10⁻⁶ cm/s,,,,,
NCCCNCCNCC(O)c1cc(C(F)(F)F)nc2c(C(F)(F)F)cccc12 (stereo not drawn),,,,> 0.5 µg/mL,0.38 µg/mL,> 0.5 µg/mL,> 0.5 µg/mL,
CN(CCN(C)CC(O)c1cc(C(F)(F)F)nc2c(C(F)(F)F)cccc12)CC(O)c1cc(C(F)(F)F)nc2c(C(F)(F)F)cccc12 (stereo not drawn),0.329 µg/mL,0.375 µg/mL,,,,,,
NCCN(Cc1ccccc1)CC(O)c1cc(C(F)(F)F)nc2c(C(F)(F)F)cccc12 (stereo not drawn),0.329 µg/mL,0.289 µg/mL,9.06 ×10⁻⁶ cm/s,,,,,
CC(CNC(C)(C)C)NCC(O)c1cc(C(F)(F)F)nc2c(C(F)(F)F)cccc12 (stereo not drawn),0.015 µg/mL,0.041 µg/mL,13.1 ×10⁻⁶ cm/s,,,,,
OC(CNC[C@]12CCC[C@H]1CNC2)c1cc(C(F)(F)F)nc2c(C(F)(F)F)cccc12 (stereo partly drawn),,,,0.852 µg/mL,0.159 µg/mL,0.419 µg/mL,0.429 µg/mL,
CN1CCCC(C(NCC(O)c2cc(C(F)(F)F)nc3c(C(F)(F)F)cccc23)C2CCCN(C)C2)C1 (stereo not drawn),,,,0.28 µg/mL,0.746 µg/mL,0.903 µg/mL,0.983 µg/mL,
OC(CNCCNC1CCCC1)c1cc(C(F)(F)F)nc2c(C(F)(F)F)cccc12 (stereo not drawn),0.11 µg/mL,0.198 µg/mL,3 ×10⁻⁶ cm/s,,,,,
O=C1NCCC1N(CCNCC(O)c1cc(C(F)(F)F)nc2c(C(F)(F)F)cccc12)C1CCNC1=O (stereo not drawn),,,,0.487 µg/mL,> 0.5 µg/mL,> 0.5 µg/mL,> 0.5 µg/mL,
CC(CNC1CCCCC1)NCC(O)c1cc(C(F)(F)F)nc2c(C(F)(F)F)cccc12 (stereo not drawn),0.026 µg/mL,0.082 µg/mL,9.6 ×10⁻⁶ cm/s,,,,,
OC(CNCCN(C1CCCCC1)C1CCCCC1)c1cc(C(F)(F)F)nc2c(C(F)(F)F)cccc12 (stereo not drawn),0.0093 µg/mL,0.022 µg/mL,24.7 ×10⁻⁶ cm/s,,,,,
CN(CCN)CC(O)c1cc(C(F)(F)F)nc2c(C(F)(F)F)cccc12 (stereo not drawn),0.344 µg/mL,0.695 µg/mL,4.9 ×10⁻⁶ cm/s,,,,,
CC(C)(CN1CC2CCC1C2)NCC(O)c1cc(C(F)(F)F)nc2c(C(F)(F)F)cccc12 (stereo not drawn),0.093 µg/mL,0.16 µg/mL,25.1 ×10⁻⁶ cm/s,,,,,
CCCCNCCNCC(O)c1cc(C(F)(F)F)nc2c(C(F)(F)F)cccc12 (stereo not drawn),0.128 µg/mL,0.236 µg/mL,5.9 ×10⁻⁶ cm/s,0.069 µg/mL,0.155 µg/mL,0.283 µg/mL,0.319 µg/mL,
CC1C(NCC(O)c2cc(C(F)(F)F)nc3c(C(F)(F)F)cccc23)CC2CC1C2(C)C (stereo not drawn),,,,,0.014 µg/mL,0.019 µg/mL,0.016 µg/mL,
OC(NC[C@H]1CCCN1)c1cc(C(F)(F)F)nc2c(C(F)(F)F)cccc12 (stereo partly drawn),,,,0.008 µg/mL,0.04 µg/mL,0.074 µg/mL,0.054 µg/mL,
CC(CN1CCCC1)NCC(O)c1cc(C(F)(F)F)nc2c(C(F)(F)F)cccc12 (stereo not drawn),0.008 µg/mL,0.055 µg/mL,33.1 ×10⁻⁶ cm/s,0.011 µg/mL,0.039 µg/mL,0.079 µg/mL,0.071 µg/mL,
CC(CNC1CCC1)NCC(O)c1cc(C(F)(F)F)nc2c(C(F)(F)F)cccc12 (stereo not drawn),0.0014 µg/mL,0.0093 µg/mL,10.4 ×10⁻⁶ cm/s,,,,,
CC(C)(C)NCCNCC(O)c1cc(C(F)(F)F)nc2c(C(F)(F)F)cccc12 (stereo not drawn),0.243 µg/mL,0.504 µg/mL,11.2 ×10⁻⁶ cm/s,,,,,
